Results taken from patent EP1272220B2, “FORMULATION FOR THE PREVENTION OF CARDIOVASCULAR DISEASE” (Wald, Nicholas John, priority 2000, dated 2001).
Marks after values point to notes of the source that are not given here.

Experiments:
[1] = randomised trials; platelet function not measured; cited from earlier work
[2] = Prevalence of adverse effects in randomised placebo controlled trials (treated minus control); type: in vivo, persons; conditions: preferred daily dose: Hydrochlorothiazide 12.5 mg, Atenolol 25 mg, Enalapril 5 mg, Aspirin 75 mg; for Prevalence of any adverse effect in randomised trials (treated minus control) / Prevalence of serious adverse effects (those that warranted withdrawal from randomised trial) (treated minus control): Atorvastatin 10 mg, Folic acid 0.8 mg
Description: The dose of each medication has been chosen to maximise the ratio of benefit to hazard. It is recognised that some persons taking a combination of six drugs would develop adverse effects that were unacceptable. The adverse effects attributable to each of the component medications would be made clear to persons taking the combined formulation and alternative formulations omitting one or more of the component ingredients, with orwithout a substitute ingredient, would be available for persons unable to tolerate one component. […]

[3] = Expected reduction in risk of ischaemic heart disease and stroke, from analyses of cohort studies and randomised controlled trials; type: in vivo, persons
Description: This combined estimate is based on the fact that the effects on the four different risk factors are unrelated and so the expected effects of changing each one will be independent of each other. This expectation is supported by two classes of evidence. […] For example the ratio of the risk of a disease event in persons with high blood pressure and the risk in persons with low blood pressure is similar, irrespective of the values of serum cholesterol and other risk factors. Second, some randomised clinical trials have used combinations of two of the drugs (for example beta blockers and aspirin) in patients with ischaemic heart disease and have shown that the effects are independent (that is, the relative risk in patients who took two drugs (compared with the risk in those who took none) was similar to the relative risk in persons taking one of the drugs multiplied by the relative risk in persons taking the other drug). Accordingly, the effect of the different drugs in combination in Table 3 has been calculated by multiplying the effects of each as shown in footnotes h and j. Table 3 - The constituent drugs in the proposed combined formulation, the cardiovascular risk factors that each alter, the amount by which each factor would be changed, and the resulting expected reduction in risk of ischaemic heart disease and stroke. [table]

[4] = Analysis of blood pressure reduction according to dose in 187 randomised placebo controlled trials of thiazide diuretics, beta-blockers and ACE inhibitors; type: in vivo, persons; conditions: Hydrochlorothiazide 12.5 mg + Atenolol 25 mg + Enalapril 5 mg daily, combined effect, half standard dose
Description: For drugs used to lower blood pressure, the dose of an active principal is below the lower therapeutic dosage for the indication of the active principal. As used herein, the term "therapeutic dosage" is intended to referto the commonly used dose in clinical practice for the treatment of high levels of the risk factor or for the treatment of cardiovascular disease by the separate active principal. The most preferred doses for blood pressure lowering agents are half of the doses at the lower end of the therapeutic range recommended in the British National Formulary of March 2000. This is in order to maximise the therapeutic benefit of the combination of agents, while minimising the risks of adverse effects of the individual agents. […] Most preferably, the dose of a blood pressure lowering agent is about half the recommended dose (or, where a range of doses is given, half of the recommended dose at the lower end of the recommended therapeutic range) for the blood pressure lowering agent.
The corresponding reductions in incidence of ischaemic heart disease and stroke are those to be expected from the blood pressure reductions, from published analyses of cohort studies and randomised controlled trials of blood pressure and ischaemic heart disease and stroke (references 1, 5).

[5] = Atorvastatin 10 mg daily; published placebo controlled trials (reference 200); cited from earlier work
[6] = Folic acid 0.8 mg daily; cited from earlier work
[7] = single drug at preferred daily dose: Atorvastatin 10 mg, Aspirin 75 mg (14 trials of 50-100 mg daily), Folic acid 0.8 mg
[8] = Hydrochlorothiazide 12.5 mg + Atenolol 25 mg + Enalapril 5 mg daily combined, expected from blood pressure reduction of 12 mmHg diastolic

| Structure (SMILES) | incidence of heart attacks and stroke [1] | Commonest adverse effects [2] | Prevalence of any adverse effect in randomised trials (treated minus control) [2] | Prevalence of serious adverse effects (those that warranted withdrawal from randomised trial) (treated minus control) [2] | Expected reduction in risk of: ischaemic heart disease [3, 7] | Expected reduction in risk of: stroke [3, 7] | Expected reduction in risk of: ischaemic heart disease [3, 8] [%^b] | Expected reduction in risk of: stroke [3, 8] [%^b] | Associated physiological variable (reduction produced by drug): Blood pressure, diastolic [4] | Associated physiological variable (reduction produced by drug): Serum cholesterol [5] | Associated physiological variable (reduction produced by drug): Plasma/serum homocysteine [6] |
| --- | --- | --- | --- | --- | --- | --- | --- | --- | --- | --- | --- |
| CC(=O)Oc1ccccc1C(=O)O [Aspirin] | reduces the incidence of heart attacks and stroke in both high risk and low risk persons | bleeding, indigestion | 1.8%^b | 0.7%^b (mainly rectal or urinary bleeding) | 38%^e | 15%^e |  |  |  |  |  |
| CC(C)NCC(O)COc1ccc(CC(N)=O)cc1 (stereo not drawn) [Atenolol] |  | cold extremities, fatigue, dizziness | 5.6%^a | 0.9%^a |  |  | 43 | 63 | (12 mmHg diastolic)^a |  |  |
| CC(C)c1c(C(=O)Nc2ccccc2)c(-c2ccccc2)c(-c2ccc(F)cc2)n1CC[C@@H](O)C[C@@H](O)CC(=O)O [Atorvastatin] |  |  | 0.1% | <0.1% | 61 %^d | 50%^d |  |  |  | Serum cholesterol (1.8 mmol/I)° |  |
| CCOC(=O)[C@H](CCc1ccccc1)N[C@@H](C)C(=O)N1CCC[C@H]1C(=O)O [Enalapril] |  | cough | 2.1%^a | 0.2%^a |  |  | 43 | 63 | (12 mmHg diastolic)^a |  |  |
| Nc1nc2ncc(CNc3ccc(C(=O)N[C@@H](CCC(=O)O)C(=O)O)cc3)nc2c(=O)[nH]1 [Folic acid] |  |  | <0.1% | <0.1% | 15%^g |  |  |  |  |  | Plasma/serum homocysteine (3 µmol/I)^f |
| NS(=O)(=O)c1cc2c(cc1Cl)NCNS2(=O)=O [Hydrochlorothiazide] |  | dizziness, impotence, nausea | 1.4%^a | 0.1%^a |  |  | 43 | 63 | (12 mmHg diastolic)^a |  |  |
